From article doi:10.1101/623967v1 (bioRxiv, 2019)

Key:
Format in all cases: physicochemical
[1] = pKFI determination: tryptophan fluorescence pH titration; conditions: lipid:peptide 150:1; for pKFI in the presence of NaCl: 150 mM NaCl, POPC and POPC/POPS (9/1) gave similar pKFI; for effect of 150 mM NaCl on the pKFI: POPC vesicles, compared with no NaCl, result in words
[2] = pKFI determination: tryptophan fluorescence pH titration with PS in the vesicles; conditions: for PS50 (amount of PS needed to reach 50% of change in pKFI): hyperbolic fit (Eq. 2) of pKFI versus molar percent POPS, 0-20%
[3] = Tryptophan fluorescence emission spectra at acidic and basic pH; conditions: POPC, Trp fluorescence, λex 280 nm
[4] = as above; conditions: POPC/POPS (9/1), Trp fluorescence, λex 280 nm
[5] = POPC/POPS vesicles, PS 0-20 mol%, lipid:peptide 200:1, 1 μM peptide

| Sequence | pKFI in the presence of NaCl [1] | effect of 150 mM NaCl on the pKFI [1] | effect of PS on the pKFI ([2]; POPC/POPS vesicles, seven PS levels between 0-20%, result in words) | Fluorescence spectral maxima ([3]; acidic pH (pH 4)) [nm] | Fluorescence spectral maxima ([3]; basic pH (pH 8)) [nm] | Fluorescence spectral maxima ([4]; acidic pH (pH 4)) [nm] | Fluorescence spectral maxima ([4]; basic pH (pH 8)) [nm] | increase in the pKFI caused by PS [2, 5] [pH units] | PS50 (amount of PS needed to reach 50% of change in pKFI) [2] [% PS] | decrease in the pKFI caused by PS [2, 5] [pH units] |
| --- | --- | --- | --- | --- | --- | --- | --- | --- | --- | --- |
| GLAGLAGLLGLEGLLGLPLGLLEGLWLGLELEGN [ATRAM, acidity-triggered rational membrane (ATRAM) peptide] | ~5.7 | decreased | not significantly affected | 327.3 ± 0.7 | 341.1 ± 2.3 | 330.8 ± 0.8 | 350.9 ± 1.0 |  |  |  |
| GKAGKAGLLGLEGLLGLPLGLLEGLWLGLELEGN [K2-ATRAM] | ~5.4 | no change |  | 329.7 ± 1.2 | 342.1 ± 2.1 | 320.2 ± 1.7 | 331.7 ± 1.8 | ~0.4 | 1.9 |  |
| GYAGLAGLLGLEGLLGLPLGLLEGLWLGLELEGN [Y-ATRAM] | ~5.7 | decrease |  | 324.5 ± 2.9 | 343.9 ± 3.6 | 320.5 ± 1.9 | 342.7 ± 2.3 |  | 0.5 | ~0.3 |
